This is an account of results in paper PMC4278837, “A Cyclic Peptidic Serine Protease Inhibitor: Increasing Affinity by Increasing Peptide Flexibility” (PLoS ONE, 2014).

The target of test [1] is T1, huPA-H99Y R35A (Homo sapiens, UniProt P00749, H272Y/R198A).
T1 construct: To ensure that the uPAs purified from the conditioned media were completely in the two-chain form, they were treated with plasmin; hexa-His (C); made in house; host or cells: HEK293 6E suspension cells
The test is described as follows: Ki for inhibition of huPA-H99Y-R35A, chromogenic substrate. Format: biochemical. To be noted: 37°C; means ± S.D.; read-out: K i for inhibition of huPA-H99Y-R35A. An excerpt: (§1) Determination of Ki values
(§2) The initial reaction velocities were monitored at an absorbance of 405 nm. The inhibition constants (K i) were subsequently determined from the non-linear regression analyses of plots for V i/V o versus [I]0, using Equation 2, derived under assumption of competitive inhibition:
(§3) [drawing 2] (2) where V i and V 0 are the reaction velocities in the presence and absence of inhibitor, respectively; [S]0 and [I]0 are the substrate and inhibitor concentrations, respectively; K M is K M for substrate hydrolysis by each protease. In Equation 2, it is assumed that [S]free ≈ [S]0 and [I]free ≈ [I]0.

The target in test [2] is T2, huPA-H99Y V41A (Homo sapiens, UniProt P00749, H272Y/V208A).
T2 construct: To ensure that the uPAs purified from the conditioned media were completely in the two-chain form, they were treated with plasmin; hexa-His (C); made in house; host or cells: HEK293 6E suspension cells
The test is described as follows: Ki for inhibition of huPA-H99Y-V41A, chromogenic substrate. Format: biochemical. To be noted: 37°C; means ± S.D.; read-out: K i for inhibition of huPA-H99Y-V41A.
Description: as §1, §2, §3

Test [3] deals with T3, huPA-H99Y K143A (Homo sapiens, UniProt P00749, H272Y/K320A).
T3 construct: To ensure that the uPAs purified from the conditioned media were completely in the two-chain form, they were treated with plasmin; hexa-His (C); made in house; host or cells: HEK293 6E suspension cells
The test is described as follows: Ki for inhibition of huPA-H99Y-K143A, chromogenic substrate. Format: biochemical. The following applies: 37°C; means ± S.D.; read-out: K i for inhibition of huPA-H99Y-K143A.
Description: as §1, §2, §3

Test [4] has as its target T4, muPA K41A (Mus musculus, UniProt P06869, K210A).
T4 construct: To ensure that the uPAs purified from the conditioned media were completely in the two-chain form, they were treated with plasmin; hexa-His (C); made in house; host or cells: HEK293 6E suspension cells
The test is described as follows: Ki for inhibition of muPA-K41A, chromogenic substrate. Format: biochemical, murine. The following applies: means ± S.D.; read-out: K i for inhibition of muPA-K41A.
Description: as §1, §2, §3

Test [5] deals with T5, muPA Y99A (Mus musculus, UniProt P06869, Y274A).
T5 construct: To ensure that the uPAs purified from the conditioned media were completely in the two-chain form, they were treated with plasmin; hexa-His (C); made in house; host or cells: HEK293 6E suspension cells
T5 sequence (P06869 180-433 Y274A): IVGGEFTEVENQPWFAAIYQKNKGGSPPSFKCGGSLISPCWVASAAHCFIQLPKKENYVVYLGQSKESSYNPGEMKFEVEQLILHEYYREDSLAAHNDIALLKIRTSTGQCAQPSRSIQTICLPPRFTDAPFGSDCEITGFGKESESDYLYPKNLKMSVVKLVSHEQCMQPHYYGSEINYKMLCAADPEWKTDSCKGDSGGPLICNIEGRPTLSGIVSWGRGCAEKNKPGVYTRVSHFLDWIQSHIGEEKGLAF
T5 sequence (P06869 21-178 partner limits assumed): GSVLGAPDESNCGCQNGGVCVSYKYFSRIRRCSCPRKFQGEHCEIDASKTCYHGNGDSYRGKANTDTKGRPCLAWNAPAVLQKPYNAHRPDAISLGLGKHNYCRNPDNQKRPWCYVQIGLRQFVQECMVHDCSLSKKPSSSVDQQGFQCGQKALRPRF
The test is described as follows: Ki for inhibition of muPA-Y99A, chromogenic substrate. The format is biochemical, murine. The following applies: means ± S.D.; read-out: K i for inhibition of muPA-Y99A.
Description: as §1, §2, §3

For test [6], the target named is T6, muPA K143A (Mus musculus, UniProt P06869, K322A).
T6 construct: To ensure that the uPAs purified from the conditioned media were completely in the two-chain form, they were treated with plasmin; hexa-His (C); made in house; host or cells: HEK293 6E suspension cells
T6 sequence (P06869 180-433 K322A): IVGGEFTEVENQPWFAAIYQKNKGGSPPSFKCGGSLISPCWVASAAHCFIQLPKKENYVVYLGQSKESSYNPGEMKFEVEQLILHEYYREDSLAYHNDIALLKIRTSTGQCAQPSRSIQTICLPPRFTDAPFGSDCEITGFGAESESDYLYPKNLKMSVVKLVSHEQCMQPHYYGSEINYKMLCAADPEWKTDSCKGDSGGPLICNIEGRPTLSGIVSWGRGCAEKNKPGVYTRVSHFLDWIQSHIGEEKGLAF
T6 sequence (P06869 21-178 partner limits assumed): as the sequence (P06869 21-178 partner limits assumed) above
The test is described as follows: Ki for inhibition of muPA-K143A, chromogenic substrate. Format: biochemical, murine. To be noted: means ± S.D.; read-out: K i for inhibition of muPA-K143A.
Description: as §1, §2, §3

Test [7] deals with T7, muPA S190A (Mus musculus, UniProt P06869, S373A).
T7 construct: To ensure that the uPAs purified from the conditioned media were completely in the two-chain form, they were treated with plasmin; hexa-His (C); made in house; host or cells: HEK293 6E suspension cells
T7 sequence (P06869 180-433 S373A): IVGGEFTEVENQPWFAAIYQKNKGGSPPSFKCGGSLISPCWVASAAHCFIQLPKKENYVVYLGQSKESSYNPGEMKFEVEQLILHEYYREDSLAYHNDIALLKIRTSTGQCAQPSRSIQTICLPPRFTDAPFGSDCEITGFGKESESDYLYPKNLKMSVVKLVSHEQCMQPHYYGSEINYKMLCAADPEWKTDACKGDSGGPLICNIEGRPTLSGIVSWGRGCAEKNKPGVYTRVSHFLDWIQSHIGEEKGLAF
T7 sequence (P06869 21-178 partner limits assumed): as the sequence (P06869 21-178 partner limits assumed) above
The test is described as follows: Ki for inhibition of muPA-S190A, chromogenic substrate. The format is biochemical, murine. To be noted: means ± S.D.; read-out: K i for inhibition of muPA-S190A.
Description: as §1, §2, §3

The target of test [8] is T8, muPA V213T (Mus musculus, UniProt P06869, V396T).
T8 construct: To ensure that the uPAs purified from the conditioned media were completely in the two-chain form, they were treated with plasmin; hexa-His (C); made in house; host or cells: HEK293 6E suspension cells
T8 sequence (P06869 180-433 V396T): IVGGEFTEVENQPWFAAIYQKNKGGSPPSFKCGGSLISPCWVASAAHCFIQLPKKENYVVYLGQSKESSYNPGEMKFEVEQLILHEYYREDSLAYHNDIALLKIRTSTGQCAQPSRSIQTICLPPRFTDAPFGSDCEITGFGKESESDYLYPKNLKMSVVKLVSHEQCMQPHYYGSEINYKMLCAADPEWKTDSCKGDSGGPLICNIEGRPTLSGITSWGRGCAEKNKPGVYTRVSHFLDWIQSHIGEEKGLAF
T8 sequence (P06869 21-178 partner limits assumed): as the sequence (P06869 21-178 partner limits assumed) above
The test is described as follows: Ki for inhibition of muPA-V213T, chromogenic substrate. Format: biochemical, murine. To be noted: means ± S.D.; read-out: K i for inhibition of muPA-V213T.
Description: as §1, §2, §3

Test [9] addresses T9, huPA-H99Y (Homo sapiens, UniProt P00749, H272Y).
T9 construct: To ensure that the uPAs purified from the conditioned media were completely in the two-chain form, they were treated with plasmin; hexa-His (C); made in house; host or cells: HEK293 6E suspension cells
The test is described as follows: Surface plasmon resonance analysis of peptide binding to huPA-H99Y. The following applies: SPR. Here is the method: (§4) Surface plasmon resonance (SPR) analysis
(§5) To determine the equilibrium binding constants (KD), the association rate constants (kon) and dissociation rate constants (koff) for peptide binding to uPA, surface plasmon resonance analysis was performed on a Biacore T200 instrument (Biacore, Uppsala, Sweden). A CM5 chip was coupled with the uPA variant (muPA or huPAH99Y) to be analysed, by injecting a concentration of 30 µg/mL uPA in immobilization buffer (10 mM sodium acetate, pH 5.0), aiming for an immobilised level of approximately 500 response units (RU). Immobilisation was followed by surface blocking with ethanolamine. A reference cell was prepared in the same way, without coupling of uPA. Mupain-1 variants in HBS with 0.1% BSA, in a dilution series, were injected at a flow rate of 30 µL per min during 60 s at 25°C. Subsequently, the dissociation was monitored during 600 s. Kinetic constants (k on and k off) were calculated with the Biacore Evaluation Software, using the 1∶1 kinetic fit. The K D values were calculated as k off /k on.
For orientation: In SPR one partner is held on a chip, and binding of the other changes the refractive index at the surface.

For test [10], the target named is T10, muPA (Mus musculus, UniProt P06869).
T10 construct: To ensure that the uPAs purified from the conditioned media were completely in the two-chain form, they were treated with plasmin; hexa-His (C); made in house; host or cells: HEK293 6E suspension cells
T10 sequence (P06869 180-433 limits assumed): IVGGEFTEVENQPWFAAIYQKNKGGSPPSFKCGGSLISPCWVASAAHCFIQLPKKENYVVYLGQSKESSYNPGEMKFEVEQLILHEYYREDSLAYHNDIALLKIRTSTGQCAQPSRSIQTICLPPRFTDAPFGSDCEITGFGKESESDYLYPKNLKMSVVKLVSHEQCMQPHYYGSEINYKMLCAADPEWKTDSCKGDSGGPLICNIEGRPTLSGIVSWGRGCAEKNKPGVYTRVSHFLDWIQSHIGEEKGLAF
T10 sequence (P06869 21-178 partner limits assumed): as the sequence (P06869 21-178 partner limits assumed) above
The test is described as follows: Surface plasmon resonance analysis of peptide binding to muPA. Also noted: species or system murine. The following applies: SPR, 25°C, pH 7.4. Here is the method: as §4, §5

The target in test [11] is T9, huPA-H99Y. The following applies: 37°C; means ± S.D.; starred values reproduced from previous publications; ref Andersen et al., 2008; Hosseini et al., 2011; read-out: K i for inhibition of huPA-H99Y; cited from earlier work.
Test [12] addresses T11, muPA wt (Mus musculus, UniProt P06869).
T11 construct: To ensure that the uPAs purified from the conditioned media were completely in the two-chain form, they were treated with plasmin; hexa-His (C); made in house; host or cells: HEK293 6E suspension cells
The following applies: means ± S.D.; starred values reproduced from previous publications; ref Andersen et al., 2008; Hosseini et al., 2011; read-out: K i for inhibition of muPA wt; cited from earlier work.

For test [13], the target named is huPA-H99Y Q192A (Homo sapiens, UniProt P00749, H272Y/Q373A). The test is described as follows: Ki for inhibition of huPA-H99Y-Q192A, chromogenic substrate. To be noted: 37°C; means ± S.D.; read-out: K i for inhibition of huPA-H99Y-Q192A. Format: biochemical. The arrangement: To ensure that the uPAs purified from the conditioned media were completely in the two-chain form, they were treated with plasmin; hexa-His (C); made in house; host or cells: HEK293 6E suspension cells.
Description: as §1, §2, §3

Like-named read-outs stand apart in the source and are kept apart here. Bridge positions count the residues as written; N and C are the ends. Square brackets hold non-standard residues; d marks the D form. Peptide text beside a SMILES is read from it. Ala(1-amidino-4-piperidyl) = N=C(N)N1CCC(C[C@H](N)C(=O)O)CC1

T11 sequence (P06869 180-433 limits assumed): as the sequence (P06869 180-433 limits assumed) above
T11 sequence (P06869 21-178 partner limits assumed): as the sequence (P06869 21-178 partner limits assumed) above
T4 sequence (P06869 180-433 K210A): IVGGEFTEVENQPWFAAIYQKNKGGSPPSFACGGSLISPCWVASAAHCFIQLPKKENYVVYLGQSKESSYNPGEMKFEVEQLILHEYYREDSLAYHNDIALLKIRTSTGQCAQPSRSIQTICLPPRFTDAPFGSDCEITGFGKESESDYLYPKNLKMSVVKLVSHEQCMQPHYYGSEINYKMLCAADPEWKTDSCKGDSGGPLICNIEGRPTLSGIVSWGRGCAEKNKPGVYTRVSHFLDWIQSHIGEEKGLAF
T4 sequence (P06869 21-178 partner limits assumed): as the sequence (P06869 21-178 partner limits assumed) above

In the case of `CC(=O)N[C@H]1CSSC[C@@H](C(N)=O)NC(=O)[C@H](CC(=O)O)NC(=O)[C@H](CC(C)C)NC(=O)[C@H](Cc2ccc(O)cc2)NC(=O)[C@H](CC2CCN(C(=N)N)CC2)NC(=O)[C@H](CO)NC(=O)[C@H](Cc2ccc(O)cc2)NC(=O)[C@H](C)NC(=O)[C@@H]2CCCN2C1=O` [Mupain-1-16, CPAYS[L-3-(N-amidino-4-piperidyl)alanine]YLDC] (Ac-CPAYS[Ala(1-amidino-4-piperidyl)]YLDC-NH2; disulfide 1-10), the Ki was 2500 ± 290 nM in test [1]; 1950 ± 300 nM in test [2]; 1130 ± 320 nM in [3]; 300 ± 50 nM in [4]; 1240 ± 440 nM in [5]; 130 ± 20 nM in test [6]. The Ki in [7] was 352 ± 40 nM; in [8] it was 13 ± 3 nM; in test [11] it was 2480 ± 70 nM; in test [12] it was 45 ± 10 nM; in test [13], 2710 ± 280 nM. In [9] (25°C, pH 7.4), the “k off, huPA-H99Y” value is reported as 8.93±0.46 (4) s^-1, ×10^2. For the same compound, the “k on, huPA-H99Y” value in test [9] (25°C, pH 7.4) is reported as 1.07±0.15 (4) M^-1s^-1, ×10^-5. Further, the Kd is 844 ± 132 nM in test [9] (25°C, pH 7.4, calculated as k off/k on, read-out: K D, huPA-H99Y) and 920 nM in [9] (huPA-H99Y immobilized on CM5 chip, single example (S3 Fig), read-out: KD of fitted curve, representative sensorgram). In [9] (huPA-H99Y immobilized on CM5 chip, single example (S3 Fig), read-out: koff of fitted curve, representative sensorgram), the koff (commonly a measure of how fast the partners let go of each other) stood at 0.0929 s⁻¹. Besides, in test [9] (huPA-H99Y immobilized on CM5 chip, single example (S3 Fig), read-out: kon of fitted curve, representative sensorgram), the kon (usually the second-order rate constant of association) was determined as 101000 M⁻¹ s⁻¹. The “k off, muPA” value in [10] is 0.671±0.119 (3) s^−1, ×10^2. Besides, the “k on, muPA” value in [10] is 0.898±0.545 (3) M^−1s^−1, ×10^−5.
